From article PMC10298275, “Antiproliferative Activity and Impact on Human Gut Microbiota of New O-Alkyl Derivatives of Naringenin and Their Oximes” (International Journal of Molecular Sciences, 2023)
In brackets after ≈: the same amount, converted by molar mass. Like-named read-outs stand apart in the source and are kept apart here.

Assays:
HT-29 cells [1] = assay: MTT assay, cell viability; format: cell-based, human; conditions: 24 h; for effect on colon adenocarcinoma cells (viability, MTT): HT-29, highest concentration 100 µg/mL; for reduction in cell viability: HT-29, MTT, 10 µg/mL dose
Procedure: (§1) The HT-29 cells (ATCC, Manassas, VA, USA) were cultured within α-MEM (IIET PAS, Wrocław, Poland) supplemented with 10% fetal bovine serum (Sigma, St. Louis, MO, USA), antimycotic (100 μg/mL penicillin, 100 μg/mL streptomycin and 0.25 μg/mL amphotericin) (Sigma) and 2 mM glutamine (Sigma). The 3T3-L1 cells (ATCC, Manassas, VA, USA) were cultivated using DMEM high-glucose medium (IIET PAS, Wrocław, Poland) supplemented as above. Both cell lines were cultured at 37 °C in an atmosphere of 5% CO2.
First, 1 × 10^4 HT-29 cells or 5 × 10^3 3T3-L1 cells were seeded into a 96-well plate and incubated for one night. Then, cells were treated with different concentrations of the investigated compounds within 24 h. Afterwards, the medium was replaced with a fresh medium containing 0.5 mg/mL of 3-(4,5-dimethylthiazol-2-yl)-2,5-diphenyl-2H-tetrazolium bromide (MTT, Sigma) and incubated for 2 h at 37 °C. After removing the medium, the formazan salts were dissolved in dimethyl sulfoxide (DMSO, Sigma), and the absorbance of the solution was measured at 560 nm using a plate reader.

SRB assay, cytotoxicity [2] = format: cell-based, mouse; conditions: mouse, 3T3-L1 cells; 3T3-L1, SRB, 24 h exposure, three independent repeats; read-out: Cytotoxicity (IC50 ± SD)
Procedure: as §1
(§2) The sulforhodamine B (SRB) assay was performed according to a previously published protocol. Briefly, 1 × 10^4 HT-29 or 5 × 10^3 3T3-L1 cells were seeded into 96-well plates. After attaching to the plate surface, the cells were incubated with 100, 75, 50, 25, 10 or 1 µg/mL of the investigated compounds for 24 h. After this time, proteins were precipitated with trichloroacetic acid and stained with SRB. The absorbance was measured at 560 nm using a GloMax Discover Microplate Reader (Promega, Madison, WI, USA).

[3] = tested on: Enterococcus faecalis ATCC 29212; assay: MBC assay; format: cell-based; conditions: Enterococcus faecalis, ATCC29212; E. faecalis ATCC 29212; read-out: MBC
Procedure: (§3) The minimum bactericidal concentration (MBC) was tested for all naringenin derivatives. First, 10 µL of medium was taken from the plate, on which the MIC was determined for the MIC value, the value below and the two values above. This volume was transferred to TSA or MC agar. After 18–24 h (depending on strain) incubation at 37 °C, colonies were counted. The concentration of test compounds at which no bacterial growth was observed was defined as the MBC value. Each experiment was repeated 3 times.

[4] = tested on: Staphylococcus aureus ATCC 25923; assay: MBC assay; format: cell-based; conditions: Staphylococcus aureus, ATCC25923; S. aureus ATCC 25923; read-out: MBC
Procedure: as §3

Escherichia coli K12 [5] = assay: MBC assay; format: cell-based; conditions: Escherichia coli; E. coli K12; read-out: MBC
Procedure: as §3

[6] = tested on: Enterococcus faecalis ATCC 29212; assay: MIC, microdilution method; format: cell-based; conditions: E. faecalis ATCC 29212, MHB, 24 h, 37 °C, tested 512 to 1 µg/mL
Procedure: (§4) Non-pathogenic reference strains representing the intestinal microbiome were used for the studies: Escherichia coli K12, Staphylococcus aureus ATCC 25923 and Enterococcus faecalis ATCC 29212. All strains were obtained from the collection of the Department of Microbiology at the Medical University of Wrocław.
(§5) The strains were received from the museum (−80 °C) and grown in tryptic soy broth (TSB, OXOID, Basingstoke, UK) under continuous shaking conditions (MaxQTM6000 incubator shaker, Thermo Scientific, Waltham, MA, USA) at 125 rpm at 37 °C. Then, they were moved to the growth media, namely tryptic soy agar (TSA, OXOID, Basingstoke, UK) and MacConkey agar (MC, Millipore, Darmstadt, Germany) for S. aureus or E. faecalis and E. coli, respectively.
(§6) A fresh 18–24 h culture was used for each study. For this purpose, a culture with a density of 1.5 × 10^8 CFU/mL in Mueller–Hinton broth (MHB, OXOID, Basingstoke, UK) was prepared and used for further microdilution studies.
(§7) The antimicrobial activity of the O-alkyl derivatives of naringenin and their oximes was tested in vitro using the microdilution method, showing the minimum inhibitory concentration (MIC), in accordance with the recommendations of the European Antimicrobial Susceptibility Testing Committee EUCAST [44]. MICs were determined in 96-well microdilution plates. The tests were carried out in MHB medium. The O-alkyl derivatives of naringenin and their oximes were tested in the concentration range of 512 to 1 µg/mL in a geometric process in MHB medium. The final concentration of the test strains in each test well was 5 × 10^5 CFU/mL. MICs were read after 18 h (for E. coli and S. aureus) and 24 h (for E. faecalis) incubation at 37 °C.
(§8) A strain growth control (tested strain in medium), background control for tested compounds (naringenin derivatives in MHB), medium control (only pure MHB) and compound solvent control (DMSO at test compound concentration, strain and MHB) were set for each experiment. Each test was set up with three independent experiments, each as three separate replicates.
(§9) The […], OD600, was measured in a plate reader (ASYS UVM340, BIOCHROM Ltd., Cambridge, UK). The background control of the tested compounds and the clean medium were included in the absorbance results.

[7] = tested on: Staphylococcus aureus ATCC 25923; assay: MIC, microdilution method; format: cell-based; conditions: Staphylococcus aureus, ATCC25923; S. aureus ATCC 25923; MHB, 18 h, 37 °C; tested 512 to 1 µg/mL; read-out: MIC
Procedure: as §4, §5, §6, §7, §8, §9

Escherichia coli K12 [8] = assay: MIC, microdilution method; format: cell-based; conditions: Escherichia coli; E. coli K12; MHB, 18 h, 37 °C; tested 512 to 1 µg/mL; read-out: MIC
Procedure: as §4, §5, §6, §7, §8, §9

SRB assay, cytotoxicity [9] = format: cell-based, human; conditions: human, HT-29 cells; HT-29, SRB, 24 h exposure, three independent repeats; read-out: Cytotoxicity (IC50 ± SD)
Procedure: as §1, §2

HT-29 cells [10] = assay: SRB assay, cytotoxicity; format: cell-based, human; conditions: HT-29, SRB, up to 100 µg/mL
Procedure: as §1, §2

[11] = Enterococcus faecalis, ATCC29212, read-out: MIC

Row | SMILES | effect on colon adenocarcinoma cells (viability, MTT) (HT-29 cells [1]) | IC50 at 24 h (SRB assay, cytotoxicity [2]) [µg/mL] | MBC [3] [µg/mL] | MBC [4] [µg/mL] | MBC (Escherichia coli K12 [5]) [µg/mL] | MIC [6, 11] [µg/mL] | MIC [7] [µg/mL] | MIC (Escherichia coli K12 [8]) [µg/mL] | IC50 at 24 h (SRB assay, cytotoxicity [9]) [µg/mL] | melting point [°C] | reduction in cell viability (HT-29 cells [1]) | MIC [6] | effect on the proliferation of the HT-29 cell line (HT-29 cells [10])
1 | CCCCCCOc1cc(O)c2c(c1)O[C@H](c1ccc(O)cc1)CC2=O [A1, 7-O-hexylnaringenin] | completely inhibited | 10.8 ± 1.1 (≈ 30.4 µM) | > 512 | > 512 | > 512 | 16 (≈ 44.9 µM) | 16 (≈ 44.9 µM) | > 512 | 14.3 ± 0.84 (≈ 40.1 µM) |  |  |  | 
2 | CCCCCCCOc1cc(O)c2c(c1)O[C@H](c1ccc(O)cc1)CC2=O [A3, 7-O-Heptylnaringenin] | completely inhibited | 7.61 ± 1.2 (≈ 20.5 µM) | > 512 | > 512 | > 512 | 32 (≈ 86.4 µM) | 16 (≈ 43.2 µM) | > 512 | 14.2 ± 0.56 (≈ 38.3 µM) | 114 to 115 |  |  | 
3 | CCCCCCCCOc1cc(O)c2c(c1)O[C@H](c1ccc(O)cc1)CC2=O [A5, 7-O-Octylnaringenin] | completely inhibited | 8.86 ± 0.67 (≈ 23 µM) | > 512 | > 512 | > 512 | 16 (≈ 41.6 µM) | 8 (≈ 20.8 µM) | > 512 | 14.63 ± 0.13 (≈ 38.1 µM) | 111 to 113 |  |  | 
4 | CCCCCCCCCOc1cc(O)c2c(c1)O[C@H](c1ccc(O)cc1)CC2=O [A7, 7-O-Nonylnaringenin] | completely inhibited | 8.65 ± 0.71 (≈ 21.7 µM) | > 512 | > 512 | > 512 | 16 (≈ 40.2 µM) | 16 (≈ 40.2 µM) | > 512 | 15 ± 0.41 (≈ 37.7 µM) | 115 to 116 |  |  | 
5 | CCCCCCOc1cc(O)c2c(c1)O[C@H](c1ccc(O)cc1)CC2=NO [B1, 7-O-hexylnaringenin oxime] |  | 8.3 ± 0.72 (≈ 22.3 µM) | 256 (≈ 689 µM) | 32 (≈ 86.2 µM) | > 512 | 16 (≈ 43.1 µM) | 8 (≈ 21.5 µM) | > 512 | 11.3 ± 1.63 (≈ 30.5 µM) |  | more than 50% |  | 
6 | CCCCCCCOc1cc(O)c2c(c1)O[C@H](c1ccc(O)cc1)CC2=NO [B3, 7-O-Heptylnaringenin oxime] |  | 7.77 ± 1.11 (≈ 20.2 µM) | 512 (≈ 1330 µM) | 128 (≈ 332 µM) | > 512 | 16 (≈ 41.5 µM) | 64 (≈ 166 µM) | > 512 | 11.3 ± 0.81 (≈ 29.3 µM) | 186 to 187 | more than 50% |  | 
7 | CCCCCCCOc1ccc([C@@H]2CC(=NO)c3c(O)cc(OCCCCCCC)cc3O2)cc1 [B4, 7,4′-Di-O-heptylnaringenin oxime] |  | > 100 | > 512 | > 512 | > 512 | > 512 | > 512 | > 512 | > 100 | 82 to 83 |  | >512 (>512) µg/mL | no effect on the proliferation
8 | CCCCCCCCOc1cc(O)c2c(c1)O[C@H](c1ccc(O)cc1)CC2=NO [B5, 7-O-Octylnaringenin oxime] |  | 7.1 ± 1.57 (≈ 17.8 µM) | 256 (≈ 641 µM) | > 512 | > 512 | 16 (≈ 40.1 µM) | 256 (≈ 641 µM) | > 512 | 9.96 ± 1.13 (≈ 24.9 µM) | 183 to 185 | more than 50% |  | 
9 | CCCCCCCCOc1ccc([C@@H]2CC(=NO)c3c(O)cc(OCCCCCCCC)cc3O2)cc1 [B6, 7,4′-Di-O-octylnaringenin oxime] |  | > 100 | > 512 | > 512 | > 512 | > 512 | > 512 | > 512 | > 100 | 85 to 86 |  | >512 (>512) µg/mL | no effect on the proliferation
10 | CCCCCCCCCOc1cc(O)c2c(c1)O[C@H](c1ccc(O)cc1)CC2=NO [B7, 7-O-Nonylnaringenin oxime] |  | 6.08 ± 0.64 (≈ 14.7 µM) | > 512 | > 512 | > 512 | 8 (≈ 19.3 µM) | 128 (≈ 310 µM) | > 512 | 11.2 ± 1.27 (≈ 27.2 µM) | 176 to 178 | more than 50% |  | 
